From US20240116948A1, “PYRIDO OXAZINE DERIVATIVES AS ALK5 INHIBITORS” (CHIESI FARMACEUTICI S.P.A., priority 2020, published 2024)
Read-outs that look alike come from different tables or passages of the source.

Molecular target: human ALK5 (Homo sapiens (Human), UniProt P36897)
Test: ADP-GLO Kinases assay, inhibition of ALK5 kinase activity
Assay type: biochemical
Experimental: The enzymatic activity of compounds of the present invention was monitored measuring the formation of ADP using the ADP-GLO Kinases assay. Following the incubation of the purified enzyme, a substrate and ATP, the produced ADP was converted into ATP, which in turn was converted into light by Ultra-Glo Luciferase. The luminescent signal positively correlated with ADP amount and kinase activity. Briefly, the kinase reaction was performed by incubating 2.6 nM of the purified, commercially available human ALK5 (recombinant TGF 31 N-term GST-tagged, 80-end), a final concentration of TGFβ1 peptide 94.5 μM (Promega, T36-58) and ultra-pure ATP (Promega V915B). The ATP concentration was set at the Km value (concentration of substrate which permits the enzyme to achieve half maximal velocity (Vmax)) of ALK5 (5 μM). All reactions/incubations were performed at 25° C. Compound and ALK5 kinase were mixed and incubated for 15 mins. Reactions were initiated by addition of ATP at a final concentration in the assay of […]. After an incubation of 150 min, the reaction was stopped, and ADP production detected with ADP-Glo kit according to manufacturer's indications. The assay was performed in 384-well format and was validated using a selection of reference compounds that was tested in 11 point concentration-response curve.
Compounds of the examples C1 and C2 were tested in the same in vitro assay described above.

[1] = Table 12, compounds classified in term of potency, ATP at Km, 25° C., read-out: ALK5 IC50
[2] = Table 13, comparative examples, same in vitro assay, read-out: ALK5 IC50
[3] = summary statements in running text, read-out: IC50 / potency on ALK5

human ALK5, sequence (P36897 80-503 limits assumed): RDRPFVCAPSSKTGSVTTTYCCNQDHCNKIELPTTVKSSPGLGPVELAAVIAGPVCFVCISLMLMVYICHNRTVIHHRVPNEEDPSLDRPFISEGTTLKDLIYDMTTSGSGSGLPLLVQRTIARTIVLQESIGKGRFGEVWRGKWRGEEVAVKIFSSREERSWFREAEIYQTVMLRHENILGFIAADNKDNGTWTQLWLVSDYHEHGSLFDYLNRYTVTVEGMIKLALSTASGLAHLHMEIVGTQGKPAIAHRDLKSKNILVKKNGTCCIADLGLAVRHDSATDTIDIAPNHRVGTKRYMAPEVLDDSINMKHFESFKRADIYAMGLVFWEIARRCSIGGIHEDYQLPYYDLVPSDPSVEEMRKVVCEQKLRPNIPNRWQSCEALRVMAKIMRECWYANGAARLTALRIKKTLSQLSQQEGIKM

Row | Compound | IC50 [1] | IC50 [2] | IC50 [3]
1 | CN1CCN(CCC(=O)Nc2cncc(-c3cc(-c4cc(Cl)ccc4F)nc4c3OCCN4)c2)C(=O)C1 [Example 47, N-{5-[6-(5-chloro-2-fluorophenyl)-2H,3H,4H-pyrido[3,2-b][1,4]oxazin-8-yl]pyridin-3-yl}-3-(4-methyl-2-oxopiperazin-1-yl)propanamide] | 5 to 10 nM |  | 
2 | Oc1cncc(-c2cc(-c3cc(Cl)ccc3F)nc3c2OCCN3)c1 [Example 29, 5-[6-(5-chloro-2-fluorophenyl)-2H,3H,4H-pyrido[3,2-b][1,4]oxazin-8-yl]pyridin-3-ol] | 1 to 5 nM |  | 
3 | CN(C)CCCC(=O)Nc1cncc(-c2cc(-c3cc(Cl)ccc3F)nc3c2OCCN3)c1 [Example 17, N-{5-[6-(5-chloro-2-fluorophenyl)-2H,3H,4H-pyrido[3,2-b][1,4]oxazin-8-yl]pyridin-3-yl}-4-(dimethylamino)butanamide] | ≤ 1 nM |  | 
4 | Oc1ccc(-c2cc(-c3cc(Cl)ccc3F)nc3c2OCCN3)cc1 [Example C2, 4-[6-(5-chloro-2-fluorophenyl)-2H,3H,4H-pyrido[3,2-b][1,4]oxazin-8-yl]phenol] |  | 1710 nM | > 1700 nM
5 | CN1CCN(CCC(=O)Nc2cncc(-c3cc(-c4cc(Cl)ccc4F)nc4c3OCCN4)c2)CC1 [Example 38, N-{5-[6-(5-chloro-2-fluorophenyl)-2H,3H,4H-pyrido[3,2-b][1,4]oxazin-8-yl]pyridin-3-yl}-3-(4-methylpiperazin-1-yl)propanamide] | 1 to 5 nM |  | 
6 | CN(CCC(=O)Nc1cncc(-c2cc(-c3cc(Cl)ccc3F)nc3c2OCCN3)c1)C1COC1 [Example 45, N-{5-[6-(5-chloro-2-fluorophenyl)-2H,3H,4H-pyrido[3,2-b][1,4]oxazin-8-yl]pyridin-3-yl}-3-[methyl(oxetan-3-yl)amino]propanamide] | 1 to 5 nM |  | 
7 | NC(=O)c1cncc(-c2cc(-c3cc(Cl)ccc3F)nc3c2OCCN3)c1 [Example 6, 5-[6-(5-chloro-2-fluorophenyl)-2H,3H,4H-pyrido[3,2-b][1,4]oxazin-8-yl]pyridine-3-carboxamide] | 1 to 5 nM |  | 
8 | CN1CCN(CCNC(=O)c2cncc(-c3cc(-c4cc(Cl)ccc4F)nc4c3OCCN4)c2)CC1 [Example 37, 5-[6-(5-chloro-2-fluorophenyl)-2H,3H,4H-pyrido[3,2-b][1,4]oxazin-8-yl]-N-[2-(4-methylpiperazin-1-yl)ethyl]pyridine-3-carboxamide] | 1 to 5 nM |  | 
9 | O=C(NCCN1CCOCC1)c1cncc(-c2cc(-c3cc(Cl)ccc3F)nc3c2OCCN3)c1 [Example 11, 5-[6-(5-chloro-2-fluorophenyl)-2H,3H,4H-pyrido[3,2-b][1,4]oxazin-8-yl]-N-[2-(morpholin-4-yl)ethyl]pyridine-3-carboxamide] | 5 to 10 nM |  | 
10 | COc1ccc(-c2cc(-c3cc(Cl)ccc3F)nc3c2OCCN3)cc1 [Example C1, 6-(5-chloro-2-fluorophenyl)-8-(4-methoxyphenyl)-2H,3H,4H-pyrido[3,2-b][1,4]oxazine] |  | 10000 nM | > 1700 nM
11 | O=C(NCCN1CCNCC1)c1cncc(-c2cc(-c3cc(Cl)ccc3F)nc3c2OCCN3)c1 [Example 20, 5-[6-(5-chloro-2-fluorophenyl)-2H,3H,4H-pyrido[3,2-b][1,4]oxazin-8-yl]-N-[2-(piperazin-1-yl)ethyl]pyridine-3-carboxamide] | 1 to 5 nM |  | 
12 | O=C(CCN1CCCCC1)Nc1cncc(-c2cc(-c3cc(Cl)ccc3F)nc3c2OCCN3)c1 [Example 18, N-{5-[6-(5-chloro-2-fluorophenyl)-2H,3H,4H-pyrido[3,2-b][1,4]oxazin-8-yl]pyridin-3-yl}-3-(piperidin-1-yl)propanamide] | ≤ 1 nM |  | 
13 | O=C(CCN1CCNCC1)Nc1cncc(-c2cc(-c3cc(Cl)ccc3F)nc3c2OCCN3)c1 [Example 16, N-{5-[6-(5-chloro-2-fluorophenyl)-2H,3H,4H-pyrido[3,2-b][1,4]oxazin-8-yl]pyridin-3-yl}-3-(piperazin-1-yl)propanamide] | 1 to 5 nM |  | 
14 | Fc1ccc(Cl)cc1-c1cc(-c2cnc3[nH]ccc3c2)c2c(n1)NCCO2 [Example 13, 6-(5-chloro-2-fluorophenyl)-8-{1H-pyrrolo[2,3-b]pyridin-5-yl}-2H,3H,4H-pyrido[3,2-b][1,4]oxazine] | 5 to 10 nM |  | 
15 | Cc1cccc(-c2cc(-c3cncc4ccccc34)c3c(n2)NCCO3)n1 [Example 3, 4-[6-(6-methylpyridin-2-yl)-2H,3H,4H-pyrido[3,2-b][1,4]oxazin-8-yl]isoquinoline] | 1 to 5 nM |  | 
16 | COC(=O)c1cncc(-c2cc(-c3cc(Cl)ccc3F)nc3c2OCCN3)c1 [Example 19, Methyl 5-[6-(5-chloro-2-fluorophenyl)-2H,3H,4H-pyrido[3,2-b][1,4]oxazin-8-yl]pyridine-3-carboxylate] | 1 to 5 nM |  | 
17 | CN(C)CC(=O)Nc1cncc(-c2cc(-c3cc(Cl)ccc3F)nc3c2OCCN3)c1 [Example 15, N-{5-[6-(5-chloro-2-fluorophenyl)-2H,3H,4H-pyrido[3,2-b][1,4]oxazin-8-yl]pyridin-3-yl}-2-(dimethylamino)acetamide] | 5 to 10 nM |  | 
18 | O=C(CCN(CCO)CCO)Nc1cncc(-c2cc(-c3cc(Cl)ccc3F)nc3c2OCCN3)c1 [Example 43, 3-[bis(2-hydroxyethyl)amino]-N-{5-[6-(5-chloro-2-fluorophenyl)-2H,3H,4H-pyrido[3,2-b][1,4]oxazin-8-yl]pyridin-3-yl}propanamide] | 1 to 5 nM |  | 
19 | CN(C)CCCNc1cncc(-c2cc(-c3cc(Cl)ccc3F)nc3c2OCCN3)c1 [Example 30, 5-[6-(5-chloro-2-fluorophenyl)-2H,3H,4H-pyrido[3,2-b][1,4]oxazin-8-yl]-N-[3-(dimethylamino)propyl]pyridin-3-amine] | 1 to 5 nM |  | 
20 | COc1cncc(-c2cc(-c3cc(Cl)ccc3F)nc3c2OCCN3)c1 [Example 25, 3-[6-(5-chloro-2-fluorophenyl)-2H,3H,4H-pyrido[3,2-b][1,4]oxazin-8-yl]-5-methoxypyridine] | ≤ 1 nM |  | 
21 | Fc1ccc(Cl)cc1-c1cc(-c2cnc3[nH]cnc3c2)c2c(n1)NCCO2 [Example 14, 6-(5-chloro-2-fluorophenyl)-8-{3H-imidazo[4,5-b]pyridin-6-yl}-2H,3H,4H-pyrido[3,2-b][1,4]oxazine] | 5 to 10 nM |  | 
22 | COC(=O)c1cncc(-c2cc(-c3cccc(C)n3)nc3c2OCCN3)c1 [Example 39, Methyl 5-[6-(6-methylpyridin-2-yl)-2H,3H,4H-pyrido[3,2-b][1,4]oxazin-8-yl]pyridine-3-carboxylate] | 5 to 10 nM |  | 
23 | Fc1ccc(Cl)cc1-c1cc(-c2cncc3ccccc23)c2c(n1)NCCO2 [Example 2, 4-[6-(5-chloro-2-fluorophenyl)-2H,3H,4H-pyrido[3,2-b][1,4]oxazin-8-yl]isoquinoline] | 1 to 5 nM |  | 
24 | CN(C)CCCNC(=O)c1cncc(-c2cc(-c3cc(Cl)ccc3F)nc3c2OCCN3)c1 [Example 21, 5-[6-(5-chloro-2-fluorophenyl)-2H,3H,4H-pyrido[3,2-b][1,4]oxazin-8-yl]-N-[3-(dimethylamino)propyl]pyridine-3-carboxamide] | ≤ 1 nM |  | 
25 | CN1CCC(COc2cncc(-c3cc(-c4cc(Cl)ccc4F)nc4c3OCCN4)c2)CC1 [Example 42, 3-[6-(5-chloro-2-fluorophenyl)-2H,3H,4H-pyrido[3,2-b][1,4]oxazin-8-yl]-5-[(1-methylpiperidin-4-yl)methoxy]pyridine] | 1 to 5 nM |  | 
26 | CNC(=O)c1cncc(-c2cc(-c3cc(Cl)ccc3F)nc3c2OCCN3)c1 [Example 7, 5-[6-(5-chloro-2-fluorophenyl)-2H,3H,4H-pyrido[3,2-b][1,4]oxazin-8-yl]-N-methylpyridine-3-carboxamide] | 5 to 10 nM |  | 
